Test results: patent US11667645B2, “Granzyme B directed imaging and therapy” (CytoSite Biopharma Inc., priority 2018, dated 2023)

target: Granzyme B (human lymphocytes) (Homo sapiens (Human), UniProt P10144); assay: human Granzyme B biochemical assay; conditions: not given
Outline: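 Fluorogenic Ac-IETD-AFC cleavage (Ex 400/Em 505 nm) read after 60 min at 22 °C, following 30 min, 22 °C enzyme–compound pre-incubation. Working stocks: enzyme 10 nM in 0.1% BSA buffer, substrate 800 µM, compound 8 points, 3.16-fold from 40 µM. Controls set 0% (DMSO) and 100% (standard inhibitor) inhibition; IC50 fitted.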

Chain of Granzyme B (human lymphocytes) (P10144 21-247): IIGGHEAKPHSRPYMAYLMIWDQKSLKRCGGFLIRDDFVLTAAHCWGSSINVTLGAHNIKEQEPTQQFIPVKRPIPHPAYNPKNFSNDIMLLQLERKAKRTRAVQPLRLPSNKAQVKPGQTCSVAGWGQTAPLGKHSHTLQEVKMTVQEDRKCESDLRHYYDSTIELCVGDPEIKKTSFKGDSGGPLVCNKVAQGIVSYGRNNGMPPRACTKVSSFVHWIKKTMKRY

| SMILES | IC50 |
| --- | --- |
| CC(C)[C@H](NC(=O)CF)C(=O)N[C@H]1COc2cccc3c2N(C1=O)[C@H](C(=O)NCc1c[nH]nn1)C3 [Compound C102, (1S,8S)-8-[(S)-2-(2-Fluoro-acetylamino)-3-methyl-butyrylamino]-9-oxo-1,2,8,9-tetrahydro-7H-6-oxa-9a-aza-benzo[cd]azulene-1-carboxylic acid (1H-[1,2,3]triazol-4-ylmethyl)-amide] | 1 to 300 nM |

same assay, conditions: Granzyme B (human lymphocytes) 5 nM, substrate Ac-IETD-AFC 200 μM, Cpd incubation with enzyme 30 mins, 22° C., read time 60 mins; read-out: IC50

| SMILES | IC50 |
| --- | --- |
| O=C(N[C@H](C(=O)N[C@H]1CCc2cccc3c2N(C1=O)[C@H](C(=O)NCc1c[nH]nn1)C3)C1CCCCC1)c1ccccc1 [Compound C079, (2S,5S)-5-((S)-2-Benzoylamino-2-cyclohexyl-acetylamino)-4-oxo-1,2,4,5,6,7-hexahydro-azepino[3,2,1-hi]indole-2-carboxylic acid (1H-[1,2,3]triazol-4-ylmethyl)-amide] | 1000 to 5000 nM |
| CC(=O)N[C@H](C(=O)N[C@H]1CCc2cccc3c2N(C1=O)[C@H](C(=O)NCc1c[nH]nn1)C3)C1CCCCC1 [Compound C080, (2S,5S)-5-((S)-2-Acetylamino-2-cyclohexyl-acetylamino)-4-oxo-1,2,4,5,6,7-hexahydro-azepino[3,2,1-hi]indole-2-carboxylic acid (1H-[1,2,3]triazol-4-ylmethyl)-amide] | 301 to 1000 nM |
| CC(=O)N[C@H](C(=O)N[C@H]1CCc2cccc3c2N(C1=O)[C@H](C(=O)NCc1c[nH]nn1)C3)C1CC1 [Compound C081, (2S,5S)-5-((S)-2-Acetylamino-2-cyclopropyl-acetylamino)-4-oxo-1,2,4,5,6,7-hexahydro-azepino[3,2,1-hi]indole-2-carboxylic acid (1H-[1,2,3]triazol-4-ylmethyl)-amide] | 301 to 1000 nM |
| O=C(N[C@H](C(=O)N[C@H]1CCc2cccc3c2N(C1=O)[C@H](C(=O)NCc1c[nH]nn1)C3)C1CC1)c1ccccc1 [Compound C082, (2S,5S)-5-((S)-2-Benzoylamino-2-cyclopropyl-acetylamino)-4-oxo-1,2,4,5,6,7-hexahydro-azepino[3,2,1-hi]indole-2-carboxylic acid (1H-[1,2,3]triazol-4-ylmethyl)-amide] | 301 to 1000 nM |
| CC(=O)N[C@H](C(=O)N[C@H]1CCc2cccc3c2N(C1=O)[C@H](C(=O)NCc1c[nH]nn1)C3)C1CCC1 [Compound C083, (2S,5S)-5-((S)-2-Acetylamino-2-cyclobutyl-acetylamino)-4-oxo-1,2,4,5,6,7-hexahydro-azepino[3,2,1-hi]indole-2-carboxylic acid (1H-[1,2,3]triazol-4-ylmethyl)-amide] | 1 to 300 nM |
| O=C(N[C@H](C(=O)N[C@H]1CCc2cccc3c2N(C1=O)[C@H](C(=O)NCc1c[nH]nn1)C3)C1CCC1)c1ccccc1 [Compound C084, (2S,5S)-5-((S)-2-Benzoylamino-2-cyclobutyl-acetylamino)-4-oxo-1,2,4,5,6,7-hexahydro-azepino[3,2,1-hi]indole-2-carboxylic acid (1H-[1,2,3]triazol-4-ylmethyl)-amide] | 1 to 300 nM |
| CC(=O)N[C@H](C(=O)N[C@H]1CCc2cccc3c2N(C1=O)[C@H](C(=O)NCC(=O)O)C3)C(C)C [Compound C085, {[(2S,5S)-5-((S)-2-Acetylamino-3-methyl-butyrylamino)-4-oxo-1,2,4,5,6,7-hexahydro-azepino[3,2,1-hi]indole-2-carbonyl]-amino}-acetic acid] | 1000 to 5000 nM |
| COC(=O)CNC(=O)[C@@H]1Cc2cccc3c2N1C(=O)[C@@H](NC(=O)[C@@H](NC(C)=O)C(C)C)CC3 [Compound C086, {[(2S,5S)-5-((S)-2-Acetylamino-3-methyl-butyrylamino)-4-oxo-1,2,4,5,6,7-hexahydro-azepino[3,2,1-hi]indole-2-carbonyl]-amino}-acetic acid methyl ester] | > 5000 nM |
| CC(=O)N[C@H](C(=O)N[C@H]1CCc2cccc3c2N(C1=O)[C@H](C(=O)N[C@H](C)C(=O)O)C3)C(C)C [Compound C087, (R)-2-{[(2S,5S)-5-((S)-2-Acetylamino-3-methyl-butyrylamino)-4-oxo-1,2,4,5,6,7-hexahydro-azepino[3,2,1-hi]indole-2-carbonyl]-amino}-propionicacid] | > 5000 nM |
| COC(=O)[C@@H](C)NC(=O)[C@@H]1Cc2cccc3c2N1C(=O)[C@@H](NC(=O)[C@@H](NC(C)=O)C(C)C)CC3 [Compound C088, (R)-2-{[(2S,5S)-5-((S)-2-Acetylamino-3-methyl-butyrylamino)-4-oxo-1,2,4,5,6,7-hexahydro-azepino[3,2,1-hi]indole-2-carbonyl]-amino}-propionicacid methyl ester] | > 5000 nM |
| CC(=O)N[C@H](C(=O)N[C@H]1CCc2cccc3c2N(C1=O)[C@H](C(=O)N[C@@H](C)C(=O)O)C3)C(C)C [Compound C089, (S)-2-{[(2S,5S)-5-((S)-2-Acetylamino-3-methyl-butyrylamino)-4-oxo-1,2,4,5,6,7-hexahydro-azepino[3,2,1-hi]indole-2-carbonyl]-amino}-propionicacid] | > 5000 nM |
| COC(=O)[C@H](C)NC(=O)[C@@H]1Cc2cccc3c2N1C(=O)[C@@H](NC(=O)[C@@H](NC(C)=O)C(C)C)CC3 [Compound C090, (S)-2-{[(2S,5S)-5-((S)-2-Acetylamino-3-methyl-butyrylamino)-4-oxo-1,2,4,5,6,7-hexahydro-azepino[3,2,1-hi]indole-2-carbonyl]-amino}-propionic acid methyl ester] | > 5000 nM |
| COC(=O)[C@H](CO)NC(=O)[C@@H]1Cc2cccc3c2N1C(=O)[C@@H](NC(=O)[C@@H](NC(C)=O)C(C)C)CC3 [Compound C091, (S)-2-{[(2S,5S)-5-((S)-2-Acetylamino-3-methyl-butyrylamino)-4-oxo-1,2,4,5,6,7-hexahydro-azepino[3,2,1-hi]indole-2-carbonyl]-amino}-3-hydroxy-propionic acid methyl ester] | > 5000 nM |
| CC(=O)N[C@H](C(=O)N[C@H]1CCc2cccc3c2N(C1=O)[C@H](C(=O)N[C@@H](CC(=O)O)C(=O)O)C3)C(C)C [Compound C092, (S)-2-{[(2S,5S)-5-((S)-2-Acetylamino-3-methyl-butyrylamino)-4-oxo-1,2,4,5,6,7-hexahydro-azepino[3,2,1-hi]indole-2-carbonyl]-amino}-succinic acid] | > 5000 nM |
| COC(=O)C[C@H](NC(=O)[C@@H]1Cc2cccc3c2N1C(=O)[C@@H](NC(=O)[C@@H](NC(C)=O)C(C)C)CC3)C(=O)OC [Compound C093, (S)-2-{[(2S,5S)-5-((S)-2-Acetylamino-3-methyl-butyrylamino)-4-oxo-1,2,4,5,6,7-hexahydro-azepino[3,2,1-hi]indole-2-carbonyl]-amino}-succinic acid dimethyl ester] | > 5000 nM |
| CC(=O)N[C@H](C(=O)N[C@H]1CCc2cccc3c2N(C1=O)[C@H](C(=O)N[C@@H](CCC(=O)O)C(=O)O)C3)C(C)C [Compound C094, (S)-2-{[(2S,5S)-5-((S)-2-Acetylamino-3-methyl-butyrylamino)-4-oxo-1,2,4,5,6,7-hexahydro-azepino[3,2,1-hi]indole-2-carbonyl]-amino}-pentanedioic acid] | > 5000 nM |
| COC(=O)CC[C@H](NC(=O)[C@@H]1Cc2cccc3c2N1C(=O)[C@@H](NC(=O)[C@@H](NC(C)=O)C(C)C)CC3)C(=O)OC [Compound C095, (S)-2-{[(2S,5S)-5-((S)-2-Acetylamino-3-methyl-butyrylamino)-4-oxo-1,2,4,5,6,7-hexahydro-azepino[3,2,1-hi]indole-2-carbonyl]-amino}-pentanedioic acid dimethyl ester] | > 5000 nM |
| CC(C)[C@H](NC(=O)c1ccccc1)C(=O)N[C@H]1COc2cccc3c2N(C1=O)[C@H](C(=O)NCc1c[nH]nn1)C3 [Compound C100, (1S,8S)-8-((S)-2-Benzoylamino-3-methyl-butyrylamino)-9-oxo-1,2,8,9-tetrahydro-7H-6-oxa-9a-aza-benzo[cd]azulene-1-carboxylic acid (1H-[1,2,3,]triazol-4-ylmethyl)-amide] | 1 to 300 nM |
| CC(=O)N[C@H](C(=O)N[C@H]1COc2cccc3c2N(C1=O)[C@H](C(=O)NCc1c[nH]nn1)C3)C(C)C [Compound C101, (1S,8S)-8-((S)-2-Acetylamino-3-methyl-butyrylamino)-9-oxo-1,2,8,9-tetrahydro-7H-6-oxa-9a-aza-benzo[cd]azulene-1-carboxylic acid (1H-[1,2,3]triazol-4-ylmethyl)-amide] | 1 to 300 nM |
| CC[C@H](C)[C@H](NC(=O)COCCF)C(=O)N[C@H]1CCc2cccc3c2N(C1=O)[C@H](C(=O)NCc1ccc[nH]1)C3 [Compound C104, (2S,5S)-5-{(2S,3S)-2-[2-(2-Fluoro-ethoxy)-acetylamino]-3-methyl-pentanoylamino}-4-oxo-1,2,4,5,6,7-hexahydro-azepino[3,2,1-hi]indole-2-carboxylic acid (1H-pyrrol-2-ylmethyl)-amide] | > 5000 nM |
| CC[C@H](C)[C@H](NC(=O)COCCF)C(=O)N[C@H]1CCc2cccc3c2N(C1=O)[C@H](C(=O)NCc1ccco1)C3 [Compound C105, (2S,5S)-5-{(2S,3S)-2-[2-(2-Fluoro-ethoxy)-acetylamino]-3-methyl-pentanoylamino}-4-oxo-1,2,4,5,6,7-hexahydro-azepino[3,2,1-hi]indole-2-carboxylic acid (furan-2-ylmethyl)-amide] | > 5000 nM |
| CC[C@H](C)[C@H](NC(=O)COCCF)C(=O)N[C@H]1CCc2cccc3c2N(C1=O)[C@H](C(=O)NCc1cccs1)C3 [Compound C106, (2S,5S)-5-{(2S,3S)-2-[2-(2-Fluoro-ethoxy)-acetylamino]-3-methyl-pentanoylamino}-4-oxo-1,2,4,5,6,7-hexahydro-azepino[3,2,1-hi]indole-2-carboxylic acid (thiophen-2-ylmethyl)-amide] | > 5000 nM |
